Legend:
Assay type in all cases: physicochemical
Solubility test (溶解度试验) = details: stated in words; values of table 2 missing in this copy
[1] = Strong light (4500lx±500lx) stability
[2] = High temperature (60℃) stability
[3] = High humidity (RH92.5%) stability

solubility (Solubility test (溶解度试验)): 较好的溶解性
crystal form stability (X-ray powder diffraction result) [1]: X-射线粉末衍射结果均未发生变化,仍保持原本晶型
crystal form stability (X-ray powder diffraction result) [2]: X-射线粉末衍射结果均未发生变化,仍保持原本晶型
crystal form stability (X-ray powder diffraction result) [3]: X-射线粉末衍射结果均未发生变化,仍保持原本晶型
Compound: COc1cc(C(=O)OCCCCNC(=N)N)cc(OC)c1O [盐酸益母草碱α晶型, 盐酸益母草碱]

Source: patent publication CN108129355A, “一种盐酸益母草碱α晶型及其制备方法和应用” (Jingde Xinxing Biological Technology Co Ltd, priority 2018, dated 2018)
